This note sets out measurements from US20220241409A1, “WATER SOLUBLE ADJUVANT AND COMPOSITION CONTAINING SAME” (Sumitomo Dainippon Pharma Co., Ltd., priority 2019, published 2022).

Experiment [1] relates to HLA-A*02:01 transgenic mouse. The experiment can be described thus: In vivo adjuvant activity, CTL induction with vaccine a, IFNγ ELISPOT (Test 7). The settings on record: for CTL counts responsive to Peptide SEQ ID No. 5: compound added to vaccine a versus no compound, Example 2 325 ng per body, Reference example 12 225 ng per body, twice, one week interval. The procedure: The in vivo adjuvant activity of the compound prepared in Example 2 and the compound prepared in Reference example 12 was evaluated in the following procedure. To vaccine a was added the compound prepared in Example 2 or the compound prepared in Reference example 12 to prepare each vaccine, and the vaccine was administered to a HLA-A*02:01 transgenic mouse, and the adjuvant activity of each vaccine was evaluated by the method of testing antigen-specific CTL induction.
Specifically, vaccine a prepared like Test 6 was injected to mice intradermally at the tail base area in an amount for administering 300 μg of Compound of formula 4 per body and 225 μg of Peptide SEQ ID NO. 3 per body. Or, in the step of preparing vaccine a, the compound prepared in Example 2 was added to the diluted peptide solution to prepare a vaccine, and the prepared vaccine was injected to mice intradermally at the tail base area in an amount for administering 300 μg of Compound of formula 4 per body, 225 μg of Peptide SEQ ID No. 3 per body, and 325 ng of the compound prepared in Example 2 per body. Or, in the step of preparing vaccine a, the compound prepared in Reference example 12 was added to the diluted peptide solution to prepare a vaccine, and the prepared vaccine was injected to mice intradermally at the tail base area in an amount for administering 300 μg of Compound of formula 4 per body, 225 μg of Peptide SEQ ID No. 3 per body, and 225 ng of the compound prepared in Reference example 12 per body. The administrations were done twice, which had one week interval. One week after the final administration, the mice were sacrificed with CO2 gas. Splenocytes were harvested from spleens removed from the mice. In particular, an ELISPOT plate was treated with an anti-mouse-IFNγ antibody on the day before preparation of the splenocyte samples. On the next day, the plate was blocked by treatment with an RPMI 1640 medium with 10% FBS. To the blocked ELISPOT plate, the prepared splenocyte samples were added at 6.25×10^4 cells/well. […] Stained spots were counted on ImmunoSpot Analyzer.

Experiment [2] deals with HLA-A*02:01 transgenic mouse. In words: In vivo adjuvant activity, CTL induction with vaccine a, IFNγ ELISPOT (Test 6). The settings on record: for CTL counts responsive to Peptide SEQ ID No. 1 (IFNγ-producing cells) / CTL counts responsive to Peptide SEQ ID No. 5 (IFNγ-producing cells): compound added to vaccine a versus vaccine a, intradermal, Example 3 32.5 ng per body, Reference example 14 17.5 ng per body, one week later. How it is done:
The in vivo adjuvant activity of the compound of Example 3 and the compound of Reference example 14 was evaluated in the following procedure. To a cocktail vaccine comprising Compound of formula 4 prepared in Reference example 9 and Peptide SEQ ID No. 3 prepared in Reference example 3 with a preliminarily-emulsified composition (hereinafter, referred to as “vaccine a”) was added the compound prepared in Example 3 or the compound prepared in Reference example 14 respectively to prepare each vaccine. The vaccine was administered to a HLA-A*02:01 transgenic mouse, and the adjuvant activity of each vaccine was evaluated by the method of testing antigen-specific cytotoxic T-lymphocyte (CTL) induction. The RMFPNAPYL (SEQ ID No. 1) in Compound of formula 4 and VLDFAPPGA (SEQ ID No. 5) in Peptide SEQ ID No. 3 correspond to antigen peptides derived from an HLA-A*02:01-restricted WT1 protein.
HLA-A*02:01 transgenic mouse (C57BL/6CrHLA-A2.1DR1) lacks mouse MHC, and instead expresses a chimeric HLA of a human MHC (HLA-A*02:01) and a mouse MHC (H-2D^b), and HLA-DRB1*01:01. The mouse can evaluate the pharmacological activity of immunotherapeutic agents including a peptide which induces CTLs in HLA-A*02:01-positive human (Eur J Immunol. 2004; 34: 3060-9). In addition, the mouse can also evaluate the induction of a helper peptide which can bind to a human HLA-DRB1*01:01 to induce a helper T-cell, and the enhancing effect for inducing CTLs.
The character for inducing CTLs specific to the antigen peptide (SEQ ID No. 1 or SEQ ID No. 5) by vaccine a was evaluated by measuring whether IFNγ can be produced upon stimulation of splenocytes from the mouse with the peptide. In addition, the character for exerting in vivo adjuvant activity by the compound in Example 3 or the compound in Reference example 14 was evaluated by comparing the number of CTLs induced by vaccine a and the number of CTLs induced by the vaccine prepared by adding the compound prepared in Example 3 or the compound in Reference example 14 to vaccine a, and checking presence or absence of the increase on the number.
0.312 g of sodium dihydrogen phosphate dihydrate was dissolved in 80 g of water for injection. 14.0 g of ethyl oleate, 14.0 g of octyldodecyl myristate, 2.0 g of sorbitan monooleate, 2.8 g of glyceryl monooleate, 0.4 g of polyoxyethylene hydrogenated castor oil 20, and 0.4 g of glycerin were mixed. 2.354 mL of the mixture (corresponding to 2.077 g) was put into a test tube, and 0.396 mL of the aqueous sodium dihydrogen phosphate (corresponding to 0.396 g) was gradually added into the test tube which was being stirred with a mixer (ULTRA-TURRAX T10, IKA, or Touch Mixer MT-51, Yamato Scientific) to emulsify the mixture in the test tube. The obtained emulsion was referred to as preliminary emulsified composition. The amount of the preparation was adjusted as appropriate.
Compound of formula 4 and Peptide SEQ ID No. 3 were dissolved in DMSO, and then diluted with water for injection to concentrations of Compound of formula 4 of 3 mg/ml and Peptide of SEQ ID No. 3 of 2.25 mg/ml. The diluted peptide solution was mixed and emulsified with an equal volume of the above preliminary emulsified composition to prepare vaccine a. Vaccine a was injected to mice intradermally at the tail base area in an amount for administering 300 μg of Compound of formula 4 per body and 225 μg of Peptide SEQ ID No. 3 per body. Or, in the step of preparing vaccine a, the compound prepared in Example 3 was added to the diluted peptide solution to prepare a vaccine, and the prepared vaccine was injected to mice intradermally at the tail base area in an amount for administering 300 μg of Compound of formula 4 per body, 225 μg of Peptide SEQ ID No. 3 per body, and 32.5 ng of the compound prepared in Example 3 per body. […]

The mark [3] stands for this setting: Example 3 32.5 ng per body versus Reference example 14 17.5 ng per body, added to vaccine.

`CCCCOc1nc(N)c2[nH]c(=O)n(Cc3ccc(CNC)nc3)c2n1` [Reference example 12, reference compound]: the “CTL counts responsive to Peptide SEQ ID No. 5” value in experiment [1] is given as “more”.
For the molecule `CCCCOc1nc(N)c2[nH]c(=O)n(Cc3ccc(CNC)cc3)c2n1` [Reference example 14, reference compound], in experiment [2], the “CTL counts responsive to Peptide SEQ ID No. 1 (IFNγ-producing cells)” value is “increased” and the “CTL counts responsive to Peptide SEQ ID No. 5 (IFNγ-producing cells)” value is “increased”.
As for `CCCCOc1nc(N)c2[nH]c(=O)n(Cc3ccc(CN(C)CCOCCOCCOCCOCCO)cc3)c2n1` [Example 3, 6-amino-2-butoxy-9-{[4-(16-hydroxy-2-methyl-5,8,11,14-tetraoxa-2-azahexadecan-1-yl)phenyl]methyl}-7,9-dihydro-8H-purin-8-one], in experiment [2] (setting [3]), the “increase of the CTL counts (Peptide SEQ ID No. 1) compared with Reference example 14” value is recorded as “more” and the “increase of the CTL counts (Peptide SEQ ID No. 5) compared with Reference example 14” value is given as “more”. Besides, in experiment [2], the “CTL counts responsive to Peptide SEQ ID No. 1 (IFNγ-producing cells)” value is on record as “increased” and the “CTL counts responsive to Peptide SEQ ID No. 5 (IFNγ-producing cells)” value is reported as “increased”.
On to `CCCCOc1nc(N)c2[nH]c(=O)n(Cc3ccc(CN(C)CCOCCOCCOCCOCCO)nc3)c2n1` [Example 2, 6-amino-2-butoxy-9-{[6-(16-hydroxy-2-methyl-5,8,11,14-tetraoxa-2-azahexadecan-1-yl)pyridin-3-yl]methyl}-7,9-dihydro-8H-purin-8-one-trifluoroacetate], for which the “increase of the CTL counts (Peptide SEQ ID No. 5) compared with Reference example 12” value in experiment [1] (Example 2 325 ng per body versus Reference example 12 225 ng per body, added to vaccine) is on record as “more”. In addition, the “CTL counts responsive to Peptide SEQ ID No. 5” value in experiment [1] is given as “more”.
